Laboratory results taken from ChEMBL document CHEMBL1142811, “Design and syntheses of melanocortin subtype-4 receptor agonists. Part 2: discovery of the dihydropyridazinone motif” (Bioorg Med Chem Lett, 2005).

Experiments:
Melanocortin receptor 4 [1] = molecular target: T1, Melanocortin receptor 4 (Homo sapiens, UniProt P32245); test: Maximum percentage of cAMP accumulation relative to alpha-MSH at human melanocortin 4 receptor at 10 uM; format: functional
Melanocortin receptor 3 [2] = molecular target: T2, Melanocortin receptor 3 (Homo sapiens, UniProt P41968); test: Inhibition of [125I]-NDP- alpha-MSH binding to human melanocortin 3 receptor expressed in CHO cell at 4 uM; format: cell-based
Melanocortin receptor 5 [3] = molecular target: T3, Melanocortin receptor 5 (Homo sapiens, UniProt P33032); test: Maximum percentage of cAMP accumulation compared to alpha-MSH at human melanocortin 5 receptor at 10 uM; format: functional
Melanocortin receptor 3 [4] = molecular target: T2, Melanocortin receptor 3; test: Maximum percentage of cAMP accumulation compared to alpha-MSH at human melanocortin 3 receptor at 10 uM; format: functional
Melanocortin receptor 4 [5] = molecular target: T1, Melanocortin receptor 4; test: Effective concentration at human melanocortin 4 receptor in cAMP release assay; format: functional
Melanocortin receptor 4 [6] = molecular target: T1, Melanocortin receptor 4; test: Inhibition of [125I]-NDP- alpha-MSH binding to human melanocortin 4 receptor expressed in CHO cells; format: cell-based
Melanocortin receptor 5 [7] = molecular target: T3, Melanocortin receptor 5; test: Inhibition of [125I]-NDP- alpha-MSH binding to human melanocortin 5 receptor expressed in CHO cells; format: cell-based
[8] = molecular target: T4, Melanocyte-stimulating hormone receptor (Homo sapiens, UniProt Q01726); test: Inhibition of [125I]-NDP- alpha-MSH binding to human melanocortin 1 receptor
Target sequence in this assay (Q01726 whole entry): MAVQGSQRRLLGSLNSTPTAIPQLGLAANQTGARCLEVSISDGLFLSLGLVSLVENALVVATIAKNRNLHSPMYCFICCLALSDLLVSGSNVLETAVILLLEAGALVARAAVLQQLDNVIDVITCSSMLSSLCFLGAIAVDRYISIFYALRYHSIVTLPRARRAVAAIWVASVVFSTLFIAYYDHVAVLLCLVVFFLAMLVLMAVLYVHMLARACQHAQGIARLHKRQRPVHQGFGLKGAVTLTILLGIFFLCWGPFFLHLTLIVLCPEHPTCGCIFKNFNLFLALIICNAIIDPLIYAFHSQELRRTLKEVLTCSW

Melanocortin receptor 3 [9] = molecular target: T2, Melanocortin receptor 3; test: Inhibition of [125I]-NDP- alpha-MSH binding to human melanocortin 3 receptor
Melanocortin receptor 4 [10] = molecular target: T1, Melanocortin receptor 4; test: Inhibition of [125I]-NDP- alpha-MSH binding to human melanocortin 4 receptor
Melanocortin receptor 3 [11] = molecular target: T2, Melanocortin receptor 3; test: Effective concentration against human melanocortin 3 receptor in cAMP release assay; format: functional
[12] = molecular target: T4, Melanocyte-stimulating hormone receptor; test: Effective concentration against human melanocortin 1 receptor in cAMP release assay; format: functional
Target sequence in this assay (Q01726 whole entry): as above

Melanocortin receptor 5 [13] = molecular target: T3, Melanocortin receptor 5; test: Inhibition of [125I]-NDP- alpha-MSH binding to human melanocortin 5 receptor
Melanocortin receptor 5 [14] = molecular target: T3, Melanocortin receptor 5; test: Maximum percentage of cAMP accumulation compared to alpha-MSH at human melanocortin 5 receptor; format: functional
[15] = molecular target: T4, Melanocyte-stimulating hormone receptor; conditions: 10 uM
Target sequence in this assay (Q01726 whole entry, looked up): as the sequence (Q01726 whole entry) above
Description: Maximum percentage of cAMP accumulation compared to alpha-MSH at human melanocortin 1 receptor at 10 uM

Melanocortin receptor 3 [16] = molecular target: T2, Melanocortin receptor 3; test: Inhibition of [125I]-NDP- alpha-MSH binding to human melanocortin 3 receptor expressed in CHO cells; format: cell-based
Melanocortin receptor 3 [17] = molecular target: T2, Melanocortin receptor 3; test: Maximum percentage of cAMP accumulation compared to alpha-MSH at human melanocortin 3 receptor; format: functional
Melanocortin receptor 5 [18] = molecular target: T3, Melanocortin receptor 5; test: Effective concentration against human melanocortin 5 receptor in cAMP release assay; format: functional

T2 sequence (P41968 whole entry): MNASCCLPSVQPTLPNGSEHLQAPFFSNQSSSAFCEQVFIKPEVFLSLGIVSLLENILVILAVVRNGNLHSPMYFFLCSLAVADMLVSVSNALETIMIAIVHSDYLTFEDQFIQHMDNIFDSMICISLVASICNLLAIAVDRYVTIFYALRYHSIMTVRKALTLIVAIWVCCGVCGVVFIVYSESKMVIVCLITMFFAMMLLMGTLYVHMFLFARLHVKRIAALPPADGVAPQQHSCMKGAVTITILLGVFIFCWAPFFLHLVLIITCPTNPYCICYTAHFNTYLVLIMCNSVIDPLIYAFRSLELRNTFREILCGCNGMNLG
T3 sequence (P33032 whole entry): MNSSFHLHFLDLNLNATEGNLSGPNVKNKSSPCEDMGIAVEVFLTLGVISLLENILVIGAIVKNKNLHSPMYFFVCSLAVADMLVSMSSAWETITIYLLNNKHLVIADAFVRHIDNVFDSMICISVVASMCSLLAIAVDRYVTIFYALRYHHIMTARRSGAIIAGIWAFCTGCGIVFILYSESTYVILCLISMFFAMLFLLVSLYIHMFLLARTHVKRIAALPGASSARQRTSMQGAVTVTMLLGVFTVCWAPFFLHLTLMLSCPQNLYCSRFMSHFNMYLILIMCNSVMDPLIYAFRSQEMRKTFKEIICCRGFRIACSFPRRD
T1 sequence (P32245 whole entry): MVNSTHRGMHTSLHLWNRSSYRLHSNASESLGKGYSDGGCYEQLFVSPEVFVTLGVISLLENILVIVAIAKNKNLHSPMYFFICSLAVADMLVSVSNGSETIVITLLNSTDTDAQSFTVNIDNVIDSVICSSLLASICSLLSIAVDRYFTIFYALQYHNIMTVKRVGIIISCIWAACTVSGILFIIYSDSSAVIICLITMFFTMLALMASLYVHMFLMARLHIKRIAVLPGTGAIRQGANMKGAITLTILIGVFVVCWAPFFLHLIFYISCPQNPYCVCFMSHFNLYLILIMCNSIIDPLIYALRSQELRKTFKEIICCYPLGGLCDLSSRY

Row | Max (Melanocortin receptor 4 [1]) [%] | Max (Melanocortin receptor 5 [3]) [%] | Max (Melanocortin receptor 3 [4]) [%] | EC50 (Melanocortin receptor 4 [5]) [nM] | IC50 (Melanocortin receptor 4 [6]) [nM] | IC50 (Melanocortin receptor 5 [7]) [nM] | IC50 [8] [nM] | IC50 (Melanocortin receptor 3 [9]) [nM] | IC50 (Melanocortin receptor 5 [13]) [nM] | Compound | other results
1 |  |  |  | 30 | 22 |  | 1100 | 4700 | 3100 | COc1ccc(N2N=C(Sc3ccc(Cl)cc3)CC(CC[C@@H](C)NC(=O)[C@H]3CCNC[C@@H]3c3ccc(F)cc3)C2=O)cc1 (stereo in doubt; 63) [listing 1 of 2 here] | IC50 (Melanocortin receptor 4 [10]): 22 nM; EC50 (Melanocortin receptor 3 [11]): 1100 nM; EC50 [12]: 220 nM
2 | 67 |  | 5 |  |  |  |  |  |  | COc1ccc(N2N=C(Sc3ccc(Cl)cc3)CC(CC[C@@H](C)NC(=O)[C@H]3CNCC[C@@H]3c3ccc(F)cc3)C2=O)cc1 (stereo in doubt; 26) [listing 1 of 2 here] | Max (Melanocortin receptor 5 [14]): 27%; Max [15]: 12%
3 |  |  |  | 40 | 1.5 |  | 230 | 420 | 1100 | COc1ccc(N2N=C(Sc3ccc(Cl)cc3)CC(CC[C@@H](C)NC(=O)[C@H]3CNCC[C@@H]3c3ccc(F)cc3)C2=O)cc1 (stereo in doubt; 26) [listing 2 of 2 here] | EC50 (Melanocortin receptor 5 [18]): 2400 nM; IC50 (Melanocortin receptor 4 [10]): 1.5 nM
4 | 98 | 7 |  |  |  |  |  |  |  | COc1ccc(N2N=C(Sc3ccc(Cl)cc3)CC(CC[C@@H](C)NC(=O)[C@H]3CCNC[C@@H]3c3ccc(F)cc3)C2=O)cc1 (stereo in doubt; 63) [listing 2 of 2 here] | Max (Melanocortin receptor 3 [17]): 21%

The remaining lines, values behind:

Row | Compound | Max (Melanocortin receptor 4 [1]) [%] | Max (Melanocortin receptor 5 [3]) [%] | Max (Melanocortin receptor 3 [4]) [%] | EC50 (Melanocortin receptor 4 [5]) [nM] | IC50 (Melanocortin receptor 4 [6]) [nM] | IC50 (Melanocortin receptor 5 [7]) [nM] | IC50 [8] [nM] | IC50 (Melanocortin receptor 3 [9]) [nM] | IC50 (Melanocortin receptor 5 [13]) [nM] | other results
5 | COc1ccc(-n2nc(Sc3ccc(Cl)cc3)cc(CC[C@@H](C)NC(=O)[C@H]3CCNC[C@@H]3c3ccc(F)cc3)c2=O)cc1 | 101 | 1 | 45 | 110 | 66 | 1200 |  |  |  | inhibition (Melanocortin receptor 3 [2]): 40%
6 | COc1ccc(N2N=C(Sc3ccc(Cl)cc3)CC(CC[C@@H](C)NC(=O)C3CNC[C@@H]3c3ccc(F)cc3)C2=O)cc1 (single isomer, unassigned; 67) [listing 1 of 2 here] |  |  |  | 66 | 18 |  | 290 | 1600 | 690 | EC50 [12]: 240 nM
7 | COc1ccc(N2N=C(Sc3ccc(Cl)cc3)CC(CC[C@@H](C)NC(=O)C3CNC[C@@H]3c3ccc(F)cc3)C2=O)cc1 (single isomer, unassigned; 67) [listing 2 of 2 here] | 90 | 5 | 10 |  |  |  |  |  |  | 
8 | COc1ccc(-n2nc(Sc3ccc(Cl)cc3)cc(CC[C@@H](C)NC(=O)[C@H]3CNC[C@@H]3c3ccc(F)cc3)c2=O)cc1 | 84 | 5 |  | 110 | 70 | 1400 |  |  |  | IC50 (Melanocortin receptor 3 [16]): > 3000 nM; EC50 (Melanocortin receptor 3 [11]): 2400 nM; Max (Melanocortin receptor 3 [17]): 24%
9 | COc1ccc(-n2nc(Sc3ccc(Cl)cc3)cc(CC[C@@H](C)NC(=O)[C@H]3CNCC[C@@H]3c3ccc(F)cc3)c2=O)cc1 | 71 | 7 | 6 | 61 | 11 | 840 |  |  |  | IC50 (Melanocortin receptor 3 [16]): 940 nM
